The test system of assay [1] is Diet Induced Obese (DIO) C57BL/6 mice. In words: 10 day DIO mouse model (body weight, food intake, hematology, blood chemistry). It is filed as in vivo. The following applies: 240 h, DIO mouse, once a day for 10 days, read-out: DIO Mouse 10-day weight loss vs vehicle; for inhibition in vivo at 0.3 mg/kg: 0.3 mpk sc. In outline:
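DIO C57BL/6 mice on 60% kcal fat diet received compounds subcutaneously once daily for 10 days at 1.0, 0.5, 0.3, 0.1 or 0.03 mpk, in 10% DMSO in water, after 3-day vehicle acclimation. Body weight and food intake were recorded daily. Hematology and blood chemistry were taken on Day 11, 24 h post-final dose.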

Another assay concerns the target recombinant human MetAP2 (Homo sapiens (Human), UniProt P50579). In words: recombinant human MetAP2 enzyme inhibition assay. It is filed as biochemical. Here is the method: Compounds are tested for their capacity to inhibit recombinant human MetAP2 activity using the following assay.
Flag tagged Human recombinant MetAP2 expressed and isolated for use as the enzyme source. 10 mM stock solutions of compounds were prepared in 100% DMSO and further diluted in 100% DMSO required concentration to 1 mM stocks. The stock compound solutions and DMSO vehicle controls were diluted to target final compound concentrations using assay buffer to a final concentration of 50 mM HEPES containing 100 mM NaCl, pH adjusted to 7.5. The MAS peptide was formulated to a 7.5 mM stock in distilled water and prior to use further diluted 1:4. […] 40 μl of enzyme was mixed with 100 μl of MnCl2 then further diluted in assay buffer to a final concentration of 16 μg/ml. To test for compound effect on MetAP2 enzyme activity, 5 μl of test compound, 10 μl of MAS substrate/amino acid oxidase mixture, 10 μl of MetAP2 was added to test wells in a 384 well black plate with blank wells containing no enzyme, replaced with 10 μl of assay buffer. All compounds were tested in duplicate on two occasions on the same day.
The plate was sealed with a TopSeal A cover and mixed briefly on an orbital mixer at 900 rpm. The plate was incubated for a further 25 minutes at 25° C. A 5× stock of Amplex buffer was prepared (0.25M sodium phosphate, pH 7.4) and stored at 4° C. […] 25 μl detection reagent was added to each well of the test plate, which was re-sealed and mixed briefly on an orbital shaker.

The mark [2] stands for this setting: recombinant human MetAP2, MAS peptide substrate, 25 minutes at 25° C.

Where a name gives a salt, the structure may show the parent alone. Read-outs that look alike come from different tables or passages of the source. Some results are limits rather than exact numbers.

recombinant human MetAP2, sequence (P50579 whole entry): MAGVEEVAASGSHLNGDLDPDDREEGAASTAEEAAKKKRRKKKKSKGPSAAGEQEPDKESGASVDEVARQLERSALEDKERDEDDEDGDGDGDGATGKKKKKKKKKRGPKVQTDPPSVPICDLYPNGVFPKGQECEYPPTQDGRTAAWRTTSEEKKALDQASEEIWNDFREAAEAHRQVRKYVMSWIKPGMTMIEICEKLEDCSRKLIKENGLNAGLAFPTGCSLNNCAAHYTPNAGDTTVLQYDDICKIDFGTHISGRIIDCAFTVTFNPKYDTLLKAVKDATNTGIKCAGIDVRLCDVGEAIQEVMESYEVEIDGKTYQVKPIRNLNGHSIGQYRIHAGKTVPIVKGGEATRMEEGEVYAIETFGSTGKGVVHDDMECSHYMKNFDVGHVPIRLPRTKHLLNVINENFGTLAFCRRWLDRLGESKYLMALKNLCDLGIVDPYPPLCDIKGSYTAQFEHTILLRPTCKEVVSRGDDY

For `CCN(CC)CCC1CCN(C(=O)O[C@@H]2CC[C@]3(CO3)[C@@H]([C@@]3(C)O[C@@H]3CC=C(C)C)[C@@H]2OC)C1` (stereo in doubt) [Example 56, (S)-(3R,4S,5S,6R)-5-methoxy-4-((2R,3R)-2-methyl-3-(3-methylbut-2-en-1-yl)oxiran-2-yl)-1-oxaspiro[2.5]octan-6-yl 3-(2-(diethylamino)ethyl)pyrrolidine-1-carboxylate], the inhibition in vivo at 0.3 mg/kg in assay [1] was found to be 7.2%. In addition, the IC50 on recombinant human MetAP2 (setting [2]) was under 0.05 µM.

On to `CO[C@@H]1[C@H](OC(=O)N2CC(CCN3CCCCC3)C2)CC[C@]2(CO2)[C@H]1[C@@]1(C)O[C@@H]1CC=C(C)C` [Example 4, (3R,4S,5S,6R)-5-methoxy-4-((2R,3R)-2-methyl-3-(3-methylbut-2-enyl)oxiran-2-yl)-1-oxaspiro[2.5]octan-6-yl 3-(2-(piperidin-1-yl)ethyl)azetidine-1-carboxylate formate], for which the inhibition in vivo at 0.3 mg/kg in assay [1] came to 4.1%. Moreover, the IC50 on recombinant human MetAP2 (setting [2]) is under 0.05 µM.

In the case of `CO[C@@H]1[C@H](OC(=O)N2CC(CCN3CCC3)C2)CC[C@]2(CO2)[C@H]1[C@@]1(C)O[C@@H]1CC=C(C)C` [Example 5, (3R,4S,5S,6R)-5-methoxy-4-((2R,3R)-2-methyl-3-(3-methylbut-2-en-1-yl)oxiran-2-yl)-1-oxaspiro[2.5]octan-6-yl 3-(2-(azetidin-1-yl)ethyl)azetidine-1-carboxylate], the inhibition in vivo at 0.3 mg/kg in assay [1] turned out to be 4.3%. The IC50 on recombinant human MetAP2 (setting [2]) is under 0.05 µM.

Turning to `CO[C@@H]1[C@H](OC(=O)N2CC(CCN3CCC(O)CC3)C2)CC[C@]2(CO2)[C@H]1[C@@]1(C)O[C@@H]1CC=C(C)C` [Example 7, (3R,4S,5S,6R)-5-methoxy-4-((2R,3R)-2-methyl-3-(3-methylbut-2-en-1-yl)oxiran-2-yl)-1-oxaspiro[2.5]octan-6-yl 3-(2-(4-hydroxypiperidin-1-yl)ethyl)azetidine-1-carboxylate], the inhibition in vivo at 0.3 mg/kg in assay [1] (Mus musculus, sc) came to 1.8%. Further, on recombinant human MetAP2 (setting [2]), the IC50 was under 0.05 µM.

Consider `CO[C@@H]1[C@H](OC(=O)N2CC(CCN3CCC(C)(O)CC3)C2)CC[C@]2(CO2)[C@H]1[C@@]1(C)O[C@@H]1CC=C(C)C` [Example 8, (3R,4S,5S,6R)-5-methoxy-4-((2R,3R)-2-methyl-3-(3-methylbut-2-enyl)oxiran-2-yl)-1-oxaspiro[2.5]octan-6-yl 3-(2-(4-hydroxy-4-methylpiperidin-1-yl)ethyl)azetidine-1-carboxylate], for which the inhibition in vivo at 0.3 mg/kg in assay [1] turned out to be 4.9%. In assay [1] (1.0 mpk sc), the inhibition in vivo at 1 mg/kg turned out to be 17.3%. Besides, the IC50 at recombinant human MetAP2 (setting [2]) is under 0.05 µM.

Take `CO[C@@H]1[C@H](OC(=O)N2CC(CCN3CC4(COC4)C3)C2)CC[C@]2(CO2)[C@H]1[C@@]1(C)O[C@@H]1CC=C(C)C` [Example 16, (3R,4S,5S,6R)-5-methoxy-4-((2R,3R)-2-methyl-3-(3-methylbut-2-en-1-yl)oxiran-2-yl)-1-oxaspiro[2.5]octan-6-yl 3-(2-(2-oxa-6-azaspiro[3.3]heptan-6-yl)ethyl)azetidine-1-carboxylate]: in assay [1], the inhibition in vivo at 0.3 mg/kg is 3.1%. The IC50 on recombinant human MetAP2 (setting [2]) is under 0.05 µM.

On to `CCN(CC)CCC1(O)CN(C(=O)O[C@@H]2CC[C@]3(CO3)[C@@H]([C@@]3(C)O[C@@H]3CC=C(C)C)[C@@H]2OC)C1` [Example 49, (3R,4S,5S,6R)-5-methoxy-4-((2R,3R)-2-methyl-3-(3-methylbut-2-enyl)oxiran-2-yl)-1-oxaspiro[2.5]octan-6-yl 3-(2-(diethylamino)ethyl)-3-hydroxyazetidine-1-carboxylate], for which, in assay [1], the inhibition in vivo at 0.3 mg/kg worked out at 4.1%. On recombinant human MetAP2 (setting [2]), the IC50 is under 0.05 µM.

For `CCN(CC)CCCC1(O)CN(C(=O)O[C@@H]2CC[C@]3(CO3)[C@@H]([C@@]3(C)O[C@@H]3CC=C(C)C)[C@@H]2OC)C1` [Example 61, (3R,4S,5S,6R)-5-methoxy-4-((2R,3R)-2-methyl-3-(3-methylbut-2-enyl)oxiran-2-yl)-1-oxaspiro[2.5]octan-6-yl 3-(3-(diethylamino)propyl)-3-hydroxyazetidine-1-carboxylate], the IC50 at recombinant human MetAP2 (setting [2]) is under 0.05 µM.

For the molecule `CO[C@@H]1[C@H](OC(=O)N2CC(CC(=O)N3CCOCC3)C2)CC[C@]2(CO2)[C@H]1[C@@]1(C)O[C@@H]1CC=C(C)C` [Example 62, (3R,4S,5S,6R)-5-methoxy-4-((2R,3R)-2-methyl-3-(3-methylbut-2-enyl)oxiran-2-yl)-1-oxaspiro[2.5]octan-6-yl 3-(2-morpholino-2-oxoethyl)azetidine-1-carboxylate formate], the inhibition in vivo at 0.3 mg/kg in assay [1] turned out to be 7.4%. Also, the IC50 on recombinant human MetAP2 (setting [2]) is under 0.05 µM.

Take `CNC(=O)CC1CN(C(=O)O[C@@H]2CC[C@]3(CO3)[C@@H]([C@@]3(C)O[C@@H]3CC=C(C)C)[C@@H]2OC)C1` [Example 63, (3R,4S,5S,6R)-5-methoxy-4-((2R,3R)-2-methyl-3-(3-methylbut-2-enyl)oxiran-2-yl)-1-oxaspiro[2.5]octan-6-yl 3-(2-(methylamino)-2-oxoethyl)azetidine-1-carboxylate]: the inhibition in vivo at 0.3 mg/kg in assay [1] worked out at 0.5%. Further, the IC50 at recombinant human MetAP2 (setting [2]) is under 0.05 µM.

For the molecule `CO[C@@H]1[C@H](OC(=O)N2CC(CC(N)=O)C2)CC[C@]2(CO2)[C@H]1[C@@]1(C)O[C@@H]1CC=C(C)C` [Example 65, (3R,4S,5S,6R)-5-methoxy-4-((2R,3R)-2-methyl-3-(3-methylbut-2-enyl)oxiran-2-yl)-1-oxaspiro[2.5]octan-6-yl 3-(2-amino-2-oxoethyl)azetidine-1-carboxylate], the inhibition in vivo at 0.3 mg/kg in assay [1] worked out at 2.6%. On recombinant human MetAP2 (setting [2]), the IC50 is under 0.05 µM.

In the case of `CCN(CC)CCNC(=O)CC1CN(C(=O)O[C@@H]2CC[C@]3(CO3)[C@@H]([C@@]3(C)O[C@@H]3CC=C(C)C)[C@@H]2OC)C1` [Example 66, (3R,4S,5S,6R)-5-methoxy-4-((2R,3R)-2-methyl-3-(3-methylbut-2-enyl)oxiran-2-yl)-1-oxaspiro[2.5]octan-6-yl 3-(2-(2-(diethylamino)ethylamino)-2-oxoethyl)azetidine-1-carboxylate], the inhibition in vivo at 0.3 mg/kg in assay [1] worked out at 7.6%. Further, the IC50 on recombinant human MetAP2 (setting [2]) is under 0.05 µM.

Consider `CO[C@@H]1[C@H](OC(=O)N2CC(OC(N)=O)C2)CC[C@]2(CO2)[C@H]1[C@@]1(C)O[C@@H]1CC=C(C)C` [Example 72, (3R,4S,5S,6R)-5-methoxy-4-((2R,3R)-2-methyl-3-(3-methylbut-2-enyl)oxiran-2-yl)-1-oxaspiro[2.5]octan-6-yl 3-(carbamoyloxy)azetidine-1-carboxylate], for which the inhibition in vivo at 0.3 mg/kg in assay [1] came to 0.8%. The IC50 on recombinant human MetAP2 (setting [2]) was under 0.05 µM.

`CCN(CC)CCNC(=O)OC1CN(C(=O)O[C@@H]2CC[C@]3(CO3)[C@@H]([C@@]3(C)O[C@@H]3CC=C(C)C)[C@@H]2OC)C1` [Example 73, (3R,4S,5S,6R)-5-methoxy-4-((2R,3R)-2-methyl-3-(3-methylbut-2-en-1-yl)oxiran-2-yl)-1-oxaspiro[2.5]octan-6-yl 3-(((2-(diethylamino)ethyl)carbamoyl)oxy)azetidine-1-carboxylate]: the inhibition in vivo at 0.3 mg/kg in assay [1] was found to be 7.4%. On recombinant human MetAP2 (setting [2]), the IC50 is under 0.05 µM.

Turning to `CNC(=O)NC1CN(C(=O)O[C@@H]2CC[C@]3(CO3)[C@@H]([C@@]3(C)O[C@@H]3CC=C(C)C)[C@@H]2OC)C1` [Example 84, (3R,4S,5S,6R)-5-methoxy-4-((2R,3R)-2-methyl-3-(3-methylbut-2-enyl)oxiran-2-yl)-1-oxaspiro[2.5]octan-6-yl 3-(3-methylureido)azetidine-1-carboxylate], the inhibition in vivo at 0.3 mg/kg in assay [1] came out at 0.8%. The IC50 on recombinant human MetAP2 (setting [2]) was under 0.05 µM.

As for `CCNC[C@@H]1CCN1C(=O)O[C@@H]1CC[C@]2(CO2)[C@@H]([C@@]2(C)O[C@@H]2CC=C(C)C)[C@@H]1OC` [Example 122, (S)-((3R,4S,5S,6R)-5-methoxy-4-((2R,3R)-2-methyl-3-(3-methylbut-2-enyl)oxiran-2-yl)-1-oxaspiro[2.5]octan-6-yl) 2-((ethylamino)methyl)azetidine-1-carboxylate], in assay [1], the inhibition in vivo at 0.3 mg/kg was 3.2%. Further, the concentration for half-maximal inhibition (IC50) on recombinant human MetAP2 (setting [2]) was under 0.05 µM.

On to `CCNCCCC1CN(C(=O)O[C@@H]2CC[C@]3(CO3)[C@@H]([C@@]3(C)O[C@@H]3CC=C(C)C)[C@@H]2OC)C1` [Example 124, (3R,4S,5S,6R)-5-methoxy-4-((2R,3R)-2-methyl-3-(3-methylbut-2-enyl)oxiran-2-yl)-1-oxaspiro[2.5]octan-6-yl 3-(3-(ethylamino)propyl)azetidine-1-carboxylate formate], for which, in assay [1], the inhibition in vivo at 0.3 mg/kg turned out to be 4.9%. Besides, at recombinant human MetAP2, the IC50 was under 0.05 µM.
